Common to all, as to assay type: biochemical
Test [1] has as its target T1, AOX (alternative oxidase) (Trypanosoma brucei, UniProt Q26710).
T1 construct: expressed in E. coli FN102 (hemA deficient), purified in DDM and added to membranes
Put plainly: NADH:O2 oxidoreduction via complex I with AOX added to SMPs or CI-only proteoliposomes. The note with it: quinol produced by complex I from endogenous ubiquinone or ubiquinone-10 in proteoliposomes, pH 7.5, 32 °C.

Test [2] addresses T2, complex I (CI, NADH:ubiquinone oxidoreductase) (Bos taurus, UniProt P03887+P17694+P42026).
T2 construct: gene NDUFS2; native enzyme in coupled submitochondrial particles (inverted inner-membrane vesicles) from bovine heart mitochondria; in supercomplexes; with NADH-ubiquinone oxidoreductase 75 kDa subunit, mitochondrial; NADH dehydrogenase [ubiquinone] flavoprotein 1, mitochondrial; NADH dehydrogenase [ubiquinone] flavoprotein 2, mitochondrial; NADH dehydrogenase [ubiquinone] iron-sulfur protein 3, mitochondrial; NADH dehydrogenase [ubiquinone] iron-sulfur protein 8, mitochondrial; NADH-ubiquinone oxidoreductase chain 2; NADH-ubiquinone oxidoreductase chain 3; NADH-ubiquinone oxidoreductase chain 4; NADH-ubiquinone oxidoreductase chain 4L; NADH-ubiquinone oxidoreductase chain 5; NADH-ubiquinone oxidoreductase chain 6
Put plainly: reverse electron transfer (NAD+ reduction) in bovine heart SMPs, NADH absorbance. Particulars: RET assay: 1 mM NAD+, 10 mM succinate, 1 mM MgATP, 50 μg/mL SMPs, pH 7.5, 32 °C, anaerobic; RET direction only, NADH oxidation not inhibited; RET also needs complex II.

Test [3] deals with T1, AOX (alternative oxidase). Put plainly: NADH:O2 oxidoreduction of SMPs with added purified AOX, cyanide-insensitive rate. The note with it: 300 or 500 nM ascofuranone, 0.1 mg AOX per mg SMP, 200 μM NADH, 400 μM NaCN (500 nM trace) or gramicidin (300 nM), pH 7.5, 32 °C.

In general, IC50 refers to the concentration that inhibits the measured activity by half. A lower IC50 goes with higher potency.

Structures are written as SMILES.

T1 sequence (Q26710 25-329): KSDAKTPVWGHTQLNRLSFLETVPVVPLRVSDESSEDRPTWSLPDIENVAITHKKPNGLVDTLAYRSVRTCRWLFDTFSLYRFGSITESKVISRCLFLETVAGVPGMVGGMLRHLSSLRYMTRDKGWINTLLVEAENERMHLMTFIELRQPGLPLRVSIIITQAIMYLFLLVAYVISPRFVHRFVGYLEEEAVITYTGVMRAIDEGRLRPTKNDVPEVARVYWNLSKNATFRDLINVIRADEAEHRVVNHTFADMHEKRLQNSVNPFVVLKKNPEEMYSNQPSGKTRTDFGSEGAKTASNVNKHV
T2 sequence (P17694 34-463): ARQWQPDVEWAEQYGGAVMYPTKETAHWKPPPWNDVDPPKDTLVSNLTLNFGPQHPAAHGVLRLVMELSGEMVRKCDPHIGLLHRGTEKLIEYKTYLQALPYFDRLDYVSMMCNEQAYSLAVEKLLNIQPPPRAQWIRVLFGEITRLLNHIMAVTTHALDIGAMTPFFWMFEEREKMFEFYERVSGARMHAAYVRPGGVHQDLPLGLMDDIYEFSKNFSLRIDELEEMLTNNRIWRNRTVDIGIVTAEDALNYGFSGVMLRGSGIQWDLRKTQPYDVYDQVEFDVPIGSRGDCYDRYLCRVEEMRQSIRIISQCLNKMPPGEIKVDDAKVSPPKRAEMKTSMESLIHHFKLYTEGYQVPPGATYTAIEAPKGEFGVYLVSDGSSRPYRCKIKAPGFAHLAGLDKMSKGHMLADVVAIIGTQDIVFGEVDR
T2 sequence (P03887 whole entry): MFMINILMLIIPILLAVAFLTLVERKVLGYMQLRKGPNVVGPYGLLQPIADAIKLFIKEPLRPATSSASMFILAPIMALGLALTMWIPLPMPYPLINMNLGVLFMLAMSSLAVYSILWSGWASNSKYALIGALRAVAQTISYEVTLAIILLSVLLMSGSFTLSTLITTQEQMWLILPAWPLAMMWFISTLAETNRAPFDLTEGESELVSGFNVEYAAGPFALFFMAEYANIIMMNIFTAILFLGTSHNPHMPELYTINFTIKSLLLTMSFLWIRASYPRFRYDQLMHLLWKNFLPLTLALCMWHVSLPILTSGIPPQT
T2 sequence (P42026 38-216): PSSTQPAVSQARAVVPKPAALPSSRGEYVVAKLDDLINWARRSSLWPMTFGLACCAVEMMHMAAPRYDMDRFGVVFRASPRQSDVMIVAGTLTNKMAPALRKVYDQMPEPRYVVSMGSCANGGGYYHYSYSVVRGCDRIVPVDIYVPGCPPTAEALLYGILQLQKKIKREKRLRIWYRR
T2 sequence (P25708 21-464 partner): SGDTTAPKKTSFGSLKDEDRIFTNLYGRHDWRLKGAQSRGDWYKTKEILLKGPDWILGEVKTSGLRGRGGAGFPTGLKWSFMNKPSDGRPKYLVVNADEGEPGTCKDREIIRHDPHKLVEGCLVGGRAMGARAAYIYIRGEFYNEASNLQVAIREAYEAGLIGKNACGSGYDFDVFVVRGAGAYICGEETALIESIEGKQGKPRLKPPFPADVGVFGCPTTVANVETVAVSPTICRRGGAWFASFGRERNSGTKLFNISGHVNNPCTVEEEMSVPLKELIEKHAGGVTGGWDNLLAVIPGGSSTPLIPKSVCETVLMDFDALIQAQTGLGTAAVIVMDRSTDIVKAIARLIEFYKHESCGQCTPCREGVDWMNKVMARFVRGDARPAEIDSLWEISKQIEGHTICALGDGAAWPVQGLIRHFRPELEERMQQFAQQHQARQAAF
T2 sequence (P15690 24-727 partner): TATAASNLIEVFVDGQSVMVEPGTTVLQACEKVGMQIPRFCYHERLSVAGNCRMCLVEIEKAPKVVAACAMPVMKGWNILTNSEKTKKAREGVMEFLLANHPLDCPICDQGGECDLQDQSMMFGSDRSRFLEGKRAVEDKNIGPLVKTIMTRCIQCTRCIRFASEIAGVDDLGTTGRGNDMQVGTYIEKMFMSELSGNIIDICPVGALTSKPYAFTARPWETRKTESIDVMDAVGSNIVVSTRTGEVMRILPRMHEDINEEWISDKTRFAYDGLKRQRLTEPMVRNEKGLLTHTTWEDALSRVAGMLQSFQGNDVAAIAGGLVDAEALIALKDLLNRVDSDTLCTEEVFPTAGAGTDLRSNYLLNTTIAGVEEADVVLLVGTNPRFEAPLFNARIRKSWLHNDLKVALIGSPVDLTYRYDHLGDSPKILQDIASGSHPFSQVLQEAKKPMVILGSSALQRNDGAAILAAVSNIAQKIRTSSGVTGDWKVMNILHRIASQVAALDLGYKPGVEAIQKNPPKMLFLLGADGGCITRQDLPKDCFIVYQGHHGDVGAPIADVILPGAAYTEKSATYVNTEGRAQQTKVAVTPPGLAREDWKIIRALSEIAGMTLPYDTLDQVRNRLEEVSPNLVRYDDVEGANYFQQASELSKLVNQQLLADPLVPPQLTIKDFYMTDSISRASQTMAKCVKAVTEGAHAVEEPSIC

As to `COc1c(O)c(C)c(C/C=C(\C)CC/C=C(\C)CC/C=C(\C)CC/C=C(\C)CC/C=C(\C)CC/C=C(\C)CC/C=C(\C)CC/C=C(\C)CC/C=C(\C)CCC=C(C)C)c(O)c1OC` [quinol], the “NADH:O2 oxidoreduction via complex I with AOX added to SMPs or CI-only proteolip” value in test [1] is reported as “also observed in synthetic, CI-only proteoliposomes containing ubiquinone-10”.

In test [2], `C/C(=C\Cc1c(O)c(Cl)c(C)c(C=O)c1O)CC/C=C(\C)[C@@H]1CC(=O)C(C)(C)O1` [ascofuranone] yielded a concentration for half-maximal inhibition (IC50) of 0.44 ± 0.04 µM. Moreover, the “NADH:O2 oxidoreduction of SMPs with added purified AOX, cyanide-insensitive rate” value in test [3] was “AOX-catalyzed quinol oxidation is insensitive to cyanide”.

Values taken from publication PMC6125145, “Mitochondrial Supercomplexes Do Not Enhance Catalysis by Quinone Channeling” (Cell Metabolism, 2018).
